Key:
Assay in all cases: relative viability (nuclei count vs DMSO), 5 days (fraction); higher = more cells survive
[1] = compound: CO[C@@H]1[C@H](N(C)C(=O)c2ccccc2)C[C@H]2O[C@]1(C)n1c3ccccc3c3c4c(c5c6ccccc6n2c5c31)C(=O)NC4 [Midostaurin] + CC(=O)c1c(C)c2cnc(Nc3ccc(N4CCNCC4)cn3)nc2n(C2CCCC2)c1=O [Palbociclib] (partner 0.5 µM)
Summary of the method: (§1)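 Relative viability equals treated-well nuclei counts divided by vehicle-well nuclei counts. Counts came from 4× images of lung cancer cell lines grown in 1536-well plates for 5 days after pin-tool dosing on the day after seeding. Dosing used one drug alone or a fixed anchor-drug dose plus five library-drug doses (not always all listed) in √10 steps, and values are medians of duplicate plates.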

Midostaurin + Navitoclax = compound: CO[C@@H]1[C@H](N(C)C(=O)c2ccccc2)C[C@H]2O[C@]1(C)n1c3ccccc3c3c4c(c5c6ccccc6n2c5c31)C(=O)NC4 [Midostaurin] + CC1(C)CCC(c2ccc(Cl)cc2)=C(CN2CCN(c3ccc(C(=O)NS(=O)(=O)c4ccc(N[C@H](CCN5CCOCC5)CSc5ccccc5)c(S(=O)(=O)C(F)(F)F)c4)cc3)CC2)C1 [Navitoclax] (partner 0.5 µM)
Summary of the method: as §1

[2] = compound: COc1cc(-c2nn([C@H]3CC[C@H](N4CCN(C(C)=O)CC4)CC3)c3ncnc(N)c23)ccc1NC(=O)c1cc2ccccc2n1C + CCNC(=O)c1noc(-c2cc(C(C)C)c(O)cc2O)c1-c1ccc(CN2CCOCC2)cc1 [Luminespib] (partner 0.01 µM)
Summary of the method: as §1

[3] = compound: COc1cc(-c2nn([C@H]3CC[C@H](N4CCN(C(C)=O)CC4)CC3)c3ncnc(N)c23)ccc1NC(=O)c1cc2ccccc2n1C + C[C@@H](Oc1cc(-c2cnn(C3CCNCC3)c2)cnc1N)c1c(Cl)ccc(F)c1Cl [Crizotinib] (partner 1 µM)
Summary of the method: as §1

[4] = compound: COc1cc(-c2nn([C@H]3CC[C@H](N4CCN(C(C)=O)CC4)CC3)c3ncnc(N)c23)ccc1NC(=O)c1cc2ccccc2n1C + C[C@]1(O)C[C@@H](c2nc(-c3ccc4ccc(-c5ccccc5)nc4c3)c3c(N)nccn32)C1 [Linsitinib] (partner 1 µM)
Summary of the method: as §1

Cell Line | relative viability ([1]; first compound 0.01 µM) | relative viability ([1]; first compound 0.03162 µM) | relative viability ([1]; first compound 0.1 µM) | relative viability ([1]; first compound 0.3162 µM) | relative viability (Midostaurin + Navitoclax; first compound 0.01 µM) | relative viability (Midostaurin + Navitoclax; first compound 0.03162 µM) | relative viability (Midostaurin + Navitoclax; first compound 0.1 µM) | relative viability (Midostaurin + Navitoclax; first compound 0.3162 µM) | relative viability ([2]; first compound 0.0128 µM) | relative viability ([2]; first compound 0.04048 µM) | relative viability ([2]; first compound 0.128 µM) | relative viability ([2]; first compound 1.28 µM) | relative viability ([3]; first compound 0.0128 µM) | relative viability ([3]; first compound 0.04048 µM) | relative viability ([3]; first compound 0.128 µM) | relative viability ([3]; first compound 1.28 µM) | relative viability ([4]; first compound 0.0128 µM) | relative viability ([4]; first compound 0.04048 µM) | relative viability ([4]; first compound 0.128 µM) | relative viability ([4]; first compound 1.28 µM)
NCI-H2126 | 0.332 | 0.364 | 0.359 | 0.383 | 0.92 | 0.826 | 0.824 | 0.903 | 0.947 | 0.957 | 0.844 | 0.648 | 1.16 | 1.08 | 1.04 | 0.749 | 0.825 | 0.765 | 0.701 | 0.537
NCI-H2228 | 0.569 | 0.954 | 0.842 | 0.845 | 0.665 | 0.824 | 1.01 | 1.02 | 0.184 | 0.145 | 0.141 | 0.115 | 0.426 | 0.489 | 0.428 | 0.276 | 0.54 | 0.883 | 0.649 | 0.643
NCI-H2347 | 0.442 | 0.449 | 0.395 | 0.404 | 0.771 | 0.832 | 0.902 | 0.889 | 0.619 |  | 0.576 | 0.34 | 0.795 | 0.751 | 0.797 | 0.736 | 0.949 | 0.856 | 0.961 | 1.09
NCI-H2405 | 0.534 | 0.575 | 0.521 | 0.51 | 0.921 | 1.04 |  | 0.655 | 0.862 | 0.529 | 0.56 | 0.251 | 0.827 |  | 0.733 | 0.442 | 0.886 | 0.541 | 0.721 | 0.326
NCI-H3122 | 0.156 | 0.241 | 0.197 | 0.229 | 1.07 | 0.993 | 1.03 | 1.04 | 0.0938 |  | 0.0759 | 0.069 | 0.289 |  | 0.269 | 0.229 | 1.1 |  | 1 | 0.875
PC-3 [JPC-3] | 0.561 | 0.554 | 0.546 | 0.602 | 0.752 | 0.777 | 0.791 | 0.851 | 0.681 | 0.838 | 0.712 | 0.711 | 1.05 | 1.09 | 0.968 | 1.08 | 1.02 | 0.957 | 0.966 | 0.997
PC-14 | 0.487 | 0.643 | 0.485 | 0.369 | 0.973 | 1.01 | 0.985 | 0.965 | 0.196 | 0.138 | 0.232 | 0.121 | 0.941 | 0.98 | 0.965 | 0.87 | 0.929 | 1.01 | 0.938 | 0.98
RERF-LC-KJ | 0.993 | 1.08 | 1.13 | 1.02 | 1.02 | 1.05 | 1.19 | 0.998 | 1.24 | 1.36 | 1.28 | 1.29 | 0.897 | 0.914 | 0.742 | 0.846 | 0.895 | 0.882 | 0.878 | 0.793
SK-LU-1 | 0.404 | 0.409 | 0.379 | 0.399 | 0.703 | 0.704 | 0.808 | 0.886 | 0.213 | 0.187 | 0.203 | 0.141 | 1 | 0.975 | 0.658 | 0.506 | 1.23 | 1.26 | 0.839 | 0.558
SK-MES-1 | 0.326 | 0.359 | 0.27 | 0.246 | 1.17 | 1.13 | 1.18 | 1.15 | 0.686 | 0.928 | 0.791 | 0.375 | 1.02 | 1.04 | 0.869 | 0.971 | 1.13 | 1.17 | 1.07 | 1.06
SW 1573 | 0.422 | 0.504 | 0.424 | 0.247 | 0.957 | 1.01 | 0.971 | 1.22 | 0.225 | 0.229 | 0.231 | 0.42 | 0.775 | 0.703 | 0.636 | 0.652 | 0.706 | 0.72 | 0.63 | 0.598
